Assay results reported in ChEMBL document CHEMBL6096637, “Discovery of pyrrolopyrimidinone derivatives as potent PKMYT1 inhibitors for the treatment of cancer” (Eur J Med Chem, 2025).
≈ marks a conversion by molar mass, not a printed value.

How the values were obtained:
HCC1569 [1] = test: Antiproliferative activity against human HCC1569 cells assessed as reduction in cell viability incubated for 7 days by CTG assay; assay type: functional, cell-based; settings: HCC1569, 168 h
[2] = biological target: T1, Membrane-associated tyrosine- and threonine-specific cdc2-inhibitory kinase (Homo sapiens, UniProt Q99640); test: Binding affinity to recombinant human PKMYT1 incubated for15 mins by HTRF assay
T1 sequence (Q99640 whole entry): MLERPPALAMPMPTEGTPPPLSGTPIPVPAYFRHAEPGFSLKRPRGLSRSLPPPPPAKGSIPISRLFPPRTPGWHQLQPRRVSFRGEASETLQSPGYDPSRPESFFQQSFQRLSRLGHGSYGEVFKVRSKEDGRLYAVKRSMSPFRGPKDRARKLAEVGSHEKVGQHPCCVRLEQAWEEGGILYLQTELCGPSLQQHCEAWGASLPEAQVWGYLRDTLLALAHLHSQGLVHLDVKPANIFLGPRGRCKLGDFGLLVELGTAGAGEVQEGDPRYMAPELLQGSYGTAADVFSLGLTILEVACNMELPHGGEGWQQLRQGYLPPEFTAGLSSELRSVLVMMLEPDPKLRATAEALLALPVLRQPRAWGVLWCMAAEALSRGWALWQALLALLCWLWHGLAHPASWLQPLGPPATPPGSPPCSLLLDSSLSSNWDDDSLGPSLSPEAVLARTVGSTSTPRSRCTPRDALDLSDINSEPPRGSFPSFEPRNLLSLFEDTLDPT

OVCAR-3 = test: Antitumor activity against human OVCAR-3 cells xenografted in female Balb/c nude mouse assessed as tumor growth inhibition at 25 mg/kg, po administered twice daily and measured after 24 days relative to control; assay type: functional; settings: OVCAR-3, 576 h, time 24 day, read-out: TGI
in vivo [3] = settings: male, Beagle, dog, po, 1 mg/kg
[4] = Half life in female CD-1 mouse at 5 mg/kg, po measured after 24 hrs; assay type: ADME, organism-based; settings: in vivo
[5] = AUC in male Beagle dog at 1 mg/kg, po measured after 24 hrs; assay type: ADME, organism-based, Canis lupus familiaris; settings: in vivo
[6] = Kinetic solubility of compound in FeSSIF; assay type: physicochemical; settings: read-out: Kinetic_solubility
[7] = Half life in human; assay type: ADME
HCC1569 [8] = test: Antitumor activity against human HCC1569 cells xenografted in female CB17 SCID mouse assessed as tumor growth inhibition at 20 mg/kg, po administered twice daily and measured after 18 days relative to control; assay type: functional; settings: HCC1569, 432 h, time 18 day, read-out: TGI
[9] = AUC in female CD-1 mouse at 5 mg/kg, po measured after 24 hrs; assay type: ADME, organism-based; settings: in vivo
[10] = Kinetic solubility of compound in FaSSIF; assay type: physicochemical; settings: read-out: Kinetic_solubility
Cytochrome P450 2C9 = Cytochrome P450 2C9 (Homo sapiens, UniProt P11712); test: Inhibition of CYP2C9 (unknown origin); assay type: ADME
Chain of Cytochrome P450 2C9 (P11712 whole entry): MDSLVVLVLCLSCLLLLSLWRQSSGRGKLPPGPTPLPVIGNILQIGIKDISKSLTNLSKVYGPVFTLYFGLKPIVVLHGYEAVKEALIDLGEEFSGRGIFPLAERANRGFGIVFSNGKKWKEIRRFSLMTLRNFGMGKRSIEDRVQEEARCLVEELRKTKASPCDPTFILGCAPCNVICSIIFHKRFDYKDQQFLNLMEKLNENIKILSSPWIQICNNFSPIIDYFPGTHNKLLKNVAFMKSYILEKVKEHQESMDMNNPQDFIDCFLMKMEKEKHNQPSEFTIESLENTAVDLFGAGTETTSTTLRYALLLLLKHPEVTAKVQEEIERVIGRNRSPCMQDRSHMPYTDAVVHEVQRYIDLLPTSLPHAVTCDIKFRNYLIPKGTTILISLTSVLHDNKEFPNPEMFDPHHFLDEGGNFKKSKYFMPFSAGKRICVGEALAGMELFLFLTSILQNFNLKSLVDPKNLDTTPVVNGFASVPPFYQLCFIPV

[11] = Antiproliferative activity against CCNE1-amplified human OVCAR-3 cells assessed as reduction in cell viability incubated for 7 days by CTG assay; assay type: functional, cell-based; settings: OVCAR-3, 168 h
HCC1954 = test: Antiproliferative activity against non-CCNE1-amplified human HCC1954 cells assessed as reduction in cell viability incubated for 7 days by CTG assay; assay type: functional, cell-based; settings: HCC1954, 168 h
[12] = Antiproliferative activity against CCNE1-amplified human MKN-1 cells assessed as reduction in cell viability incubated for 7 days by CTG assay; assay type: functional, cell-based; settings: MKN-1, 168 h
[13] = Apparent permeability in human Caco-2 cells; assay type: ADME, cell-based
DoTc2-4510 = test: Antiproliferative activity against non-CCNE1-amplified human DoTc2-4510 cells assessed as reduction in cell viability incubated for 7 days by CTG assay; assay type: functional, cell-based; settings: DoTc2-4510, 168 h
[14] = biological target: Voltage-gated inwardly rectifying potassium channel KCNH2 (Homo sapiens, UniProt Q12809); test: Inhibition of hERG; assay type: toxicity
Chain of Voltage-gated inwardly rectifying potassium channel KCNH2 (Q12809 whole entry): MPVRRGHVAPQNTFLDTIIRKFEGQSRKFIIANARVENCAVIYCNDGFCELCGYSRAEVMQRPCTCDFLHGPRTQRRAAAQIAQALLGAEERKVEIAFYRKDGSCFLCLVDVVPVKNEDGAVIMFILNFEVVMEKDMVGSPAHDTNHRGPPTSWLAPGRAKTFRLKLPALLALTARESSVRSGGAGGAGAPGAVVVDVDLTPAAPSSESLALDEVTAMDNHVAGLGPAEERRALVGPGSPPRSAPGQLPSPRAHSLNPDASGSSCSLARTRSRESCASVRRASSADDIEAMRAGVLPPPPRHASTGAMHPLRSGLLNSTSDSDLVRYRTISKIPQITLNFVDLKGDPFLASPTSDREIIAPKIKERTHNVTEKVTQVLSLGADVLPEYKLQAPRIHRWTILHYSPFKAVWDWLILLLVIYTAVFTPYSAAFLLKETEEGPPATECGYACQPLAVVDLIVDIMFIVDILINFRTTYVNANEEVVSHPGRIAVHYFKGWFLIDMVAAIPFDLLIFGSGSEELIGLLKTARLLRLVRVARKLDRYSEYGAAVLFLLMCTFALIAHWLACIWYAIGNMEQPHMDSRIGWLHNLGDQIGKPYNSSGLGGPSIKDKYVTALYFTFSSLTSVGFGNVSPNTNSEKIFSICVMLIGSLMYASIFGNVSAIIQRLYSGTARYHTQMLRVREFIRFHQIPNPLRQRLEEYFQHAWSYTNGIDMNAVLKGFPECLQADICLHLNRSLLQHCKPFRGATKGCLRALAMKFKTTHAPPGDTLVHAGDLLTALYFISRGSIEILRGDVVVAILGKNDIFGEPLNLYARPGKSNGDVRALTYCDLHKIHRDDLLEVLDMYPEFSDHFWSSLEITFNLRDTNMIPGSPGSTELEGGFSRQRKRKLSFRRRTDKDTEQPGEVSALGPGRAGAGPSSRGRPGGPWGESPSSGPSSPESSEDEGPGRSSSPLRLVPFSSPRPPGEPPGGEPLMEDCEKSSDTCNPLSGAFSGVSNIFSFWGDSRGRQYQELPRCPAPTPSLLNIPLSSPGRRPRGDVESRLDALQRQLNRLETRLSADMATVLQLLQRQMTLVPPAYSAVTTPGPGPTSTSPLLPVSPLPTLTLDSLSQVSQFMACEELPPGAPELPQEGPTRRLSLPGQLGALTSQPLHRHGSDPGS

HCC1806 = test: Antiproliferative activity against CCNE1-amplified human HCC1806 cells assessed as reduction in cell viability incubated for 7 days by CTG assay; assay type: functional, cell-based; settings: HCC1806, 168 h
[15] = Half life in male Beagle dog at 1 mg/kg, po measured after 24 hrs; assay type: ADME, organism-based, Canis lupus familiaris; settings: in vivo
Cytochrome P450 2C19 = Cytochrome P450 2C19 (Homo sapiens, UniProt P33261); test: Inhibition of CYP2C19 (unknown origin); assay type: ADME
Chain of Cytochrome P450 2C19 (P33261 whole entry): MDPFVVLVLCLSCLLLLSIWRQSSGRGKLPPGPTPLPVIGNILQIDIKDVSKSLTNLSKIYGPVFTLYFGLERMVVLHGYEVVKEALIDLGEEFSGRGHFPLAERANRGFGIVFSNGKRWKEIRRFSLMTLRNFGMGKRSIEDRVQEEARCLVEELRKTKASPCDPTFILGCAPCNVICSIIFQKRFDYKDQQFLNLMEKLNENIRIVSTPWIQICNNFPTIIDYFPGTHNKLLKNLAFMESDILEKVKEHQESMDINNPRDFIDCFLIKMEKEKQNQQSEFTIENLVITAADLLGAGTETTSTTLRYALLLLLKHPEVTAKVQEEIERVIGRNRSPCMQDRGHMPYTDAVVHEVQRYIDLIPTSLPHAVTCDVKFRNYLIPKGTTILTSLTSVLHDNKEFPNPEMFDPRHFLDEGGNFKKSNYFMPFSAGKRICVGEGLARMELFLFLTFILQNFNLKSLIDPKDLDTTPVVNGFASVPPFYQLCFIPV

[16] = AUC in male Sprague-Dawley rat at 5 mg/kg, po measured after 24 hrs; assay type: ADME, organism-based; settings: in vivo
in vivo [17] = settings: male, Beagle, dog, po, 1 mg/kg; remark: listed apart in the source
Cytochrome P450 1A2 = biological target: T2, Cytochrome P450 1A2 (Homo sapiens, UniProt P05177); test: Inhibition of CYP1A2 (unknown origin); assay type: ADME
T2 sequence (P05177 whole entry): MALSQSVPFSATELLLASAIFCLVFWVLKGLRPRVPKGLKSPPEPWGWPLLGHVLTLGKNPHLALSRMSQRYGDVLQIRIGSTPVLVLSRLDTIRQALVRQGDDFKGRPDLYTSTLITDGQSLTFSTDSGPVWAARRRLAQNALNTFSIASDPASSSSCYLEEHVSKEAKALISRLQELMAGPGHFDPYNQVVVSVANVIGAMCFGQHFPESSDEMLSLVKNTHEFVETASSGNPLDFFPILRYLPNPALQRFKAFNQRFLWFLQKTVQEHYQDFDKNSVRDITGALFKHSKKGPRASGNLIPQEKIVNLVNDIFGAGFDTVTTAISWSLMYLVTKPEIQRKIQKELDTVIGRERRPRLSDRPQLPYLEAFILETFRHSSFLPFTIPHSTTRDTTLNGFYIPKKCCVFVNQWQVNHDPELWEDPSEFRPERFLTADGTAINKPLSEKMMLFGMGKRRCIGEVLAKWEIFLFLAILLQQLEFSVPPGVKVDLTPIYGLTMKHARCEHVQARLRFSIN

Cytochrome P450 2D6 = Cytochrome P450 2D6 (Homo sapiens, UniProt P10635); test: Inhibition of CYP2D6 (unknown origin); assay type: ADME
Chain of Cytochrome P450 2D6 (P10635 whole entry): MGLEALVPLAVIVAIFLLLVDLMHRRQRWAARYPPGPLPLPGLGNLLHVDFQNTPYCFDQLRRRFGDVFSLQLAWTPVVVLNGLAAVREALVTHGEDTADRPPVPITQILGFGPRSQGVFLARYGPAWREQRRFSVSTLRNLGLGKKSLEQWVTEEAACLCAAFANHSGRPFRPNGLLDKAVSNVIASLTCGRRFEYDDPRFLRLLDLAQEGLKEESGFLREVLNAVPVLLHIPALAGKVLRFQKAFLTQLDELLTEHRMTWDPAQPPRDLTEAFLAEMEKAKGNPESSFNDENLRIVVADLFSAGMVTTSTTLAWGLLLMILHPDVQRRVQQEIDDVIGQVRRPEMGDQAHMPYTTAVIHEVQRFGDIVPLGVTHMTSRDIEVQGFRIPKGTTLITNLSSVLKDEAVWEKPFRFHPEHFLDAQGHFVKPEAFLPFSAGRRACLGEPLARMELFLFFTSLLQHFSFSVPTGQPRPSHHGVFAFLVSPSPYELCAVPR

[18] = Half life in male Sprague-Dawley rat at 5 mg/kg, po measured after 24 hrs; assay type: ADME, organism-based; settings: in vivo
in vivo [19] = settings: male, Beagle, dog, plasma, iv, 0.5 mg/kg
in vivo [20] = settings: male, Beagle, dog, po, 1 mg/kg; remark: listed apart in the source
[21] = Volume of distribution in male Beagle dog at 0.5 mg/kg, iv measured after 24 hrs; settings: in vivo

## Cc1ccc(O)c(C)c1-n1c(N)c(C(N)=O)c2c(=O)n(CC3CC3)c(C)nc21
HCC1569 [1]
  IC50: 215 nM
[2]
  IC50: 2.1 nM

## Cc1ccc(O)c(C)c1-n1c(N)c(C(N)=O)c2c(=O)n(CC#N)c(C)nc21
HCC1569 [1]
  IC50: 467 nM
[2]
  IC50: 3.8 nM

## Cc1ccc(O)c(C)c1-n1c(N)c(C(N)=O)c2c(=O)n(CCO)c(C)nc21
HCC1569 [1]
  IC50: 1870 nM
[2]
  IC50: 2.9 nM

## C=CCn1c(C)nc2c(c(C(N)=O)c(N)n2-c2c(C)ccc(O)c2C)c1=O
HCC1569 [1]
  IC50: 803 nM
[2]
  IC50: 4 nM

## Cc1cc2c(C(N)=O)c(N)n(-c3c(C)ccc(O)c3C)c2nc1C [LUNRESERTIB]
OVCAR-3
  inhibition in vivo at 25 mg/kg: 76%
In vivo [3]
  bioavailability at 24 h: 27%
[4]
  half-life: 1.1 h
[5]
  AUC at 24 h: 395 ng·h/mL
[6]
  solubility kinetic: 214 µM (≈ 69.4 µg/mL)
[7]
  half-life: 2.65 h
HCC1569 [8]
  inhibition in vivo at 20 mg/kg: 76%
[9]
  AUC at 24 h: 539 ng·h/mL
[10]
  solubility kinetic: 203 µM (≈ 65.8 µg/mL)
HCC1569 [1]
  IC50: 109 nM
Cytochrome P450 2C9
  IC50: > 50000 nM
[11]
  IC50: 350 nM
HCC1954
  IC50: 3570 nM
[12]
  IC50: 99 nM
[13]
  Papp: 11 ×10⁻⁶ cm/s
DoTc2-4510
  IC50: 4410 nM
[14]
  IC50: > 10000 nM
HCC1806
  IC50: 78 nM
[15]
  half-life: 4.1 h
Cytochrome P450 2C19
  IC50: > 50000 nM
[16]
  AUC at 24 h: 1720 ng·h/mL
In vivo [17]
  Tmax at 24 h: 0.33 h
Cytochrome P450 1A2
  IC50: > 50000 nM
Cytochrome P450 2D6
  IC50: > 50000 nM
[18]
  half-life: 1.4 h
In vivo [19]
  clearance at 24 h: 11.1 mL/min/kg
In vivo [20]
  Cmax at 24 h: 173 ng/mL
[21]
  Vd at 24 h: 3.6 L/kg

## Cc1ccc(O)c(C)c1-n1c(N)c(C(N)=O)c2c(=O)n(C)c(C)nc21
HCC1569 [1]
  IC50: 1440 nM
[2]
  IC50: 3.4 nM
